Measured values taken from patent US8952024B2, “Herbicidal pyrimidone derivatives” (E I du Pont de Nemours and Company, priority 2009, dated 2015).

Legend:
Type in all cases: in vivo
[1] = system: umbrella sedge (Cyperus difformis); test: Test B flooded paddy test; conditions: for Plant response rating, Flood, Sedge, Umbrella: 250 g ai/ha, flooded paddy test, visual rating on 0 to 100 scale (0 no effect, 100 complete control) after 13 to 15 days; for Plant response rating, Sedge, Umbrella: Flood (flooded paddy test), 13 to 15 days; for Sedge, Umbrella plant response rating: Flood, 31 g ai/ha, scale 0 to 100 (0 no effect, 100 complete control)
Outline: (§1)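 Seedlings reaching 2 leaves are flooded 3 cm deep; test material is delivered to that water, which stays at the same depth. Plants remain in a greenhouse 13–15 days and are then scored by eye versus controls from 0 to 100.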

[2] = system: barnyardgrass (Echinochloa crus-galli); test: Test B flooded paddy test; conditions: for Plant response rating, Flood, Barnyardgrass: 250 g ai/ha, flooded paddy test, visual rating on 0 to 100 scale (0 no effect, 100 complete control) after 13 to 15 days; for Plant response rating, Barnyardgrass: Flood (flooded paddy test), 13 to 15 days; for Barnyardgrass plant response rating: Flood, 31 g ai/ha, scale 0 to 100 (0 no effect, 100 complete control)
Outline: as §1

[3] = system: ducksalad (Heteranthera limosa); test: Test B flooded paddy test; conditions: for Plant response rating, Flood, Ducksalad: 250 g ai/ha, flooded paddy test, visual rating on 0 to 100 scale (0 no effect, 100 complete control) after 13 to 15 days; for Plant response rating, Ducksalad: Flood (flooded paddy test), 13 to 15 days; for Ducksalad plant response rating: Flood, 31 g ai/ha, scale 0 to 100 (0 no effect, 100 complete control)
Outline: as §1

rice (Oryza sativa) = test: Test B flooded paddy test; conditions: for Plant response rating, Flood, Rice: 250 g ai/ha, flooded paddy test, visual rating on 0 to 100 scale (0 no effect, 100 complete control) after 13 to 15 days; for Plant response rating, Rice: Flood (flooded paddy test), 13 to 15 days; for Rice plant response rating: Flood, 31 g ai/ha, scale 0 to 100 (0 no effect, 100 complete control)
Outline: as §1

[4] = system: giant foxtail (Setaria faberii); test: Test A pre-/postemergence plant response
Outline: (§2)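 Approximately ten days after concurrent pre- and postemergence spraying in a greenhouse, plants were compared with untreated controls and rated visually for injury, 0 = no effect to 100 = complete control. Preemergence spray was directed onto loam/sand soil; postemergence targeted 1–2 leaf seedlings.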

[5] = system: pigweed (Amaranthus retroflexus); test: Test A pre-/postemergence plant response
Outline: as §2

[6] = system: morningglory (Ipomoea spp.); test: Test A pre-/postemergence plant response
Outline: as §2

[7] = system: barnyardgrass (Echinochloa crus-galli); test: Test A pre-/postemergence plant response
Outline: as §2

corn (Zea mays) = test: Test A pre-/postemergence plant response
Outline: as §2

[8] = system: wheat (Triticum aestivum); test: Test A pre-/postemergence plant response
Outline: as §2

[9] = system: large crabgrass (Digitaria sanguinalis); test: Test A pre-/postemergence plant response
Outline: as §2

[10] = system: velvetleaf (Abutilon theophrasti); test: Test A pre-/postemergence plant response
Outline: as §2

[11] = system: winter barley (Hordeum vulgare); test: Test B postemergence plant response; conditions: for Barley plant response rating (0 to 100 scale): 0 is no effect
Outline: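 Plants grown in peat/vermiculite medium were sprayed postemergence at 2–18 cm height (1- to 4-leaf stage). After 13–15 days in the greenhouse, response was rated visually against untreated controls on a 0–100 scale (0 no effect, 100 complete control).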

[12] = 62 g ai/ha, scale of 0 to 100 where 0 is no effect and 100 is complete control
[13] = 125 g ai/ha, scale 0 to 100, 0 is no effect, 100 is complete control
[14] = Postemergence, 125 g ai/ha, 0 to 100 scale where 0 is no effect and 100 is complete control
[15] = Postemergence, 500 g ai/ha, 0 to 100 scale, 0 = no effect, 100 = complete control, approx. ten days
[16] = Preemergence, 500 g ai/ha, visual injury, 0 to 100 scale (0 no effect, 100 complete control), approx. ten days
[17] = Preemergence, 125 g ai/ha, 0 to 100 scale, 0 = no effect, 100 = complete control
[18] = 62 g ai/ha, postemergence, 100 is complete control, 13 to 15 days
[19] = Postemergence, 125 g ai/ha, visual rating after 13 to 15 days, scale 0 (no effect) to 100 (complete control)
[20] = 62 g ai/ha, scale 0 to 100, 0 is no effect, 100 is complete control
[21] = Postemergence, 125 g ai/ha, visual injury, 0 to 100 scale (0 no effect, 100 complete control), approx. ten days
[22] = Postemergence, 500 g ai/ha, visual injury, 0 to 100 scale (0 no effect, 100 complete control), approx. ten days
[23] = Preemergence, 500 g ai/ha, 0 to 100 scale, 0 = no effect, 100 = complete control

O=C1CCCC(OC(=O)C2CC2)=C1C(=O)c1cnc(-c2ccccc2)n(-c2ccccc2)c1=O [Compound 88]
80: Plant response rating, Flood, Ducksalad [3] | Plant response rating, Barnyardgrass [7, 14] | Plant response rating, Velvetleaf [10, 17] | Plant response rating, Barley ([11]; Postemergence, 250 g ai/ha, scale 0 to 100 (0 no effect, 100 complete control))
75: Plant response rating, Ducksalad [3, 13]
90: Plant response rating, Foxtail, Giant [4, 15] | Plant response rating, Morningglory [6, 14] | Plant response rating, Barnyardgrass [7, 15] | Plant response rating, Barnyardgrass [7, 16] | Plant response rating, Crabgrass, Large [9, 14] | Plant response rating, Crabgrass, Large [9, 15]
30: Plant response rating, Sedge, Umbrella [1, 12] | Ducksalad plant response rating [3] | Plant response rating, Barley ([11]; 31 g ai/ha, postemergence, scale 0 to 100, 0 is no effect, 100 is complete control) | Barley plant response rating (0 to 100 scale) [11, 18]
40: Plant response rating, Sedge, Umbrella [1, 13] | Plant response rating, Barnyardgrass [2, 13] | Plant response rating, Ducksalad [3, 12] | Plant response rating, Rice (rice (Oryza sativa); [13]) | Plant response rating, Barley [11, 19]
50: Plant response rating, Flood, Rice (rice (Oryza sativa)) | Plant response rating, Morningglory [6, 17]
70: Plant response rating, Morningglory [6, 16]
100: Plant response rating, Foxtail, Giant [4, 16] | Plant response rating, Pigweed [5, 14] | Plant response rating, Pigweed [5, 15] | Plant response rating, Morningglory [6, 15] | Plant response rating, Velvetleaf [10, 14] | Plant response rating, Velvetleaf [10, 15] | Plant response rating, Velvetleaf [10, 16]
65: Plant response rating, Flood, Sedge, Umbrella [1]
10: Plant response rating, Barnyardgrass [7, 17] | Plant response rating, Wheat [8, 16]
20: Plant response rating, Barnyardgrass [2, 12]
60: Plant response rating, Flood, Barnyardgrass [2] | Plant response rating, Foxtail, Giant [4, 14] | Plant response rating, Corn (corn (Zea mays); [15])
0: Sedge, Umbrella plant response rating [1] | Barnyardgrass plant response rating [2] | Plant response rating, Rice (rice (Oryza sativa); [12]) | Rice plant response rating (rice (Oryza sativa)) | Plant response rating, Corn (corn (Zea mays); [14]) | Plant response rating, Corn (corn (Zea mays); [17]) | Plant response rating, Corn (corn (Zea mays); [16]) | Plant response rating, Wheat [8, 14] | Plant response rating, Wheat [8, 15] | Plant response rating, Wheat [8, 17]

CCCCc1ncc(C(=O)C2=C(O)CCCC2=O)c(=O)n1-c1ccccc1 [Compound 42]
80: Morningglory plant response rating [6, 21] | Plant response rating, Morningglory [6, 15] | Plant response rating, Crabgrass, Large [9, 15]
100: Pigweed plant response rating [5, 21] | Plant response rating, Pigweed [5, 15] | Plant response rating, Pigweed [5, 16] | Velvetleaf plant response rating [10, 21] | Plant response rating, Velvetleaf [10, 15] | Plant response rating, Velvetleaf [10, 16]
40: Foxtail, Giant plant response rating [4, 21] | Plant response rating, Foxtail, Giant [4, 16] | Plant response rating, Crabgrass, Large [9, 17]
60: Barnyardgrass plant response rating [7, 21] | Plant response rating, Barnyardgrass [7, 16] | Crabgrass, Large plant response rating [9, 21]
20: Plant response rating, Flood, Rice (rice (Oryza sativa))
50: Plant response rating, Flood, Ducksalad [3] | Plant response rating, Morningglory [6, 16]
5: Barley plant response rating ([11]; Postemergence, 250 g ai/ha, scale 0 to 100)
90: Plant response rating, Pigweed [5, 17] | Plant response rating, Barnyardgrass [7, 15] | Plant response rating, Crabgrass, Large [9, 16]
30: Plant response rating, Flood, Sedge, Umbrella [1] | Plant response rating, Sedge, Umbrella [1, 20] | Plant response rating, Ducksalad [3, 20] | Plant response rating, Corn (corn (Zea mays); [15])
70: Plant response rating, Foxtail, Giant [4, 15] | Plant response rating, Velvetleaf [10, 17]
0: Plant response rating, Flood, Barnyardgrass [2] | Plant response rating, Barnyardgrass [2, 20] | Plant response rating, Rice (rice (Oryza sativa); [20]) | Plant response rating, Morningglory [6, 17] | Plant response rating, Barnyardgrass [7, 17] | Corn plant response rating (corn (Zea mays); [21]) | Plant response rating, Corn (corn (Zea mays); [17]) | Plant response rating, Corn (corn (Zea mays); [16]) | Wheat plant response rating [8, 21] | Plant response rating, Wheat [8, 15] | Plant response rating, Wheat [8, 17] | Plant response rating, Wheat [8, 16] | Plant response rating, Barley ([11]; Postemergence, 31 g ai/ha, scale 0 to 100 (0 no effect, 100 complete control)) | Plant response rating, Barley ([11]; Postemergence, 62 g ai/ha, scale 0 (no effect) to 100 (complete control), 13 to 15 days) | Plant response rating, Barley [11, 19]
10: Plant response rating, Foxtail, Giant [4, 17]

O=C1CCCC(O)=C1C(=O)c1cnc(-c2ccccc2)n(C2CCSCC2)c1=O [Compound 164]
100: Plant response rating, Foxtail, Giant [4, 14] | Foxtail, Giant plant response rating [4, 22] | Plant response rating, Pigweed [5, 14] | Pigweed plant response rating [5, 22] | Plant response rating, Pigweed [5, 23] | Plant response rating, Morningglory [6, 14] | Morningglory plant response rating [6, 22] | Plant response rating, Barnyardgrass [7, 14] | Barnyardgrass plant response rating [7, 22] | Crabgrass, Large plant response rating [9, 22] | Plant response rating, Velvetleaf [10, 14] | Velvetleaf plant response rating [10, 22]
70: Plant response rating, Foxtail, Giant [4, 23] | Plant response rating, Velvetleaf [10, 23]
40: Plant response rating, Foxtail, Giant [4, 17] | Plant response rating, Velvetleaf [10, 17]
5: Barley plant response rating (0 to 100 scale) [11, 18] | Plant response rating, Barley ([11]; Postemergence, 31 g ai/ha, 0 to 100 scale (0 no effect, 100 complete control))
10: Plant response rating, Morningglory [6, 17] | Plant response rating, Barnyardgrass [7, 17] | Plant response rating, Corn (corn (Zea mays); [14])
20: Plant response rating, Rice (rice (Oryza sativa); [13]) | Wheat plant response rating [8, 22]
50: Plant response rating, Morningglory [6, 23] | Corn plant response rating (corn (Zea mays); [22])
80: Plant response rating, Barnyardgrass [7, 23]
90: Plant response rating, Flood, Sedge, Umbrella [1] | Plant response rating, Crabgrass, Large [9, 14] | Plant response rating, Crabgrass, Large [9, 23]
85: Plant response rating, Flood, Ducksalad [3]
60: Plant response rating, Pigweed [5, 17]
35: Plant response rating, Flood, Rice (rice (Oryza sativa)) | Plant response rating, Barley ([11]; Postemergence, 250 g ai/ha, scale 0 to 100 (0 no effect, 100 complete control), 13 to 15 days)
0: Plant response rating, Sedge, Umbrella [1, 12] | Plant response rating, Sedge, Umbrella [1, 13] | Sedge, Umbrella plant response rating [1] | Plant response rating, Flood, Barnyardgrass [2] | Plant response rating, Barnyardgrass [2, 12] | Plant response rating, Barnyardgrass [2, 13] | Barnyardgrass plant response rating [2] | Plant response rating, Ducksalad [3, 12] | Plant response rating, Ducksalad [3, 13] | Ducksalad plant response rating [3] | Plant response rating, Rice (rice (Oryza sativa); [12]) | Rice plant response rating (rice (Oryza sativa)) | Plant response rating, Corn (corn (Zea mays); [17]) | Plant response rating, Corn (corn (Zea mays); [23]) | Plant response rating, Wheat [8, 14] | Plant response rating, Wheat [8, 17] | Plant response rating, Wheat [8, 23]
30: Plant response rating, Crabgrass, Large [9, 17] | Plant response rating, Barley ([11]; Postemergence, 125 g ai/ha, scale 0 to 100 (0 no effect, 100 complete control))
